Measurements taken from patent publication US7700782B2, “Compounds 569” (AstraZeneca AB, priority 2007, dated 2010).
Structures can show the parent of a compound that is named as a salt.

target: T1, Adrenergic β2 (Homo sapiens, UniProt P07550); test: Adrenergic β2 mediated cAMP production in H292 cells (AlphaScreen cAMP detection); type: cell-based; conditions: Intrinsic Activity, fraction relative to the maximum activity determined for formoterol
T1 construct: Adherent H292 cells were removed from tissue culture flasks; endogenous in cells; host or cells: H292 cells
Procedure, shortened: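 H292 cells, 5000/well, preincubated 10 min with rolipram (final 300 μM, 1.6% DMSO) in HEPES pH 7.4 HBSS, then compound 60 min at room temperature. Lysate cAMP quantified by AlphaScreen against a cAMP standard curve. pEC50 and intrinsic activity (fraction of formoterol maximum) from four-parameter logistic fits.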

T1 sequence (P07550 whole entry): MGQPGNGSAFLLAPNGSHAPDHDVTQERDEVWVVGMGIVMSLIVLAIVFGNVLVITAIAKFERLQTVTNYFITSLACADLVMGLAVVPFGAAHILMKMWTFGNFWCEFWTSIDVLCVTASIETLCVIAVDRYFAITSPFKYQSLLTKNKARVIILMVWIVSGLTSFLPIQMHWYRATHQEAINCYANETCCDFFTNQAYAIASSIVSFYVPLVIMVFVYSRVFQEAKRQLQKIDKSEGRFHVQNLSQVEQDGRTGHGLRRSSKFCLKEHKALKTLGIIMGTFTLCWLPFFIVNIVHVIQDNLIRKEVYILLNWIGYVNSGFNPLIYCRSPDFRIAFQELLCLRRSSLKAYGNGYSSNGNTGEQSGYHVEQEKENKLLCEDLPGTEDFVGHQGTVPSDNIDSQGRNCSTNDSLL

Going from `O=C(CCNCCc1ccc(Cl)s1)N(CCNCCc1ccc(O)c2[nH]c(=O)sc12)C1CCCCC1` [Example 72, N^3-[2-(5-Chloro-2-thienyl)ethyl]-N^1-cyclohexyl-N^1-(2-{[2-(4-hydroxy-2-oxo-2,3-dihydro-1,3-benzothiazol-7-yl)ethyl]amino}ethyl)-β-alaninamide bis-trifluoroacetic acid salt] to `O=C(CCNCCc1ccc(O)c(Cl)c1)N(CCNCCc1ccc(O)c2[nH]c(=O)sc12)C1CCCCC1` [Example 89, N^3-[2-(3-chloro-4-hydroxyphenyl)ethyl]-N^1-cyclohexyl-N^1-(2-{[2-(4-hydroxy-2-oxo-2,3-dihydro-1,3-benzothiazol-7-yl)ethyl]amino}ethyl)-β-alaninamide bis-trifluoroacetic acid salt], the “β2 Int Act” value rises from 0.89 to 0.9.

Going from `O=C(CCNCCc1ccc(F)c(F)c1)N(CCNCCc1ccc(O)c2[nH]c(=O)sc12)C1CCCCC1` [Example 73, N^1-Cyclohexyl-N^3-[2-(3,4-difluorophenyl)ethyl]-N^1-(2-{[2-(4-hydroxy-2-oxo-2,3-dihydro-1,3-benzothiazol-7-yl)ethyl]amino}ethyl)-β-alaninamide bis-trifluoroacetic acid salt] to `O=C(CCNCCc1cc(F)ccc1F)N(CCNCCc1ccc(O)c2[nH]c(=O)sc12)C1CCCCC1` [Example 79, N^1-Cyclohexyl-N^3-[2-(2,5-difluorophenyl)ethyl]-N^1-(2-{[2-(4-hydroxy-2-oxo-2,3-dihydro-1,3-benzothiazol-7-yl)ethyl]amino}ethyl)-β-alaninamide bis-trifluoroacetic acid salt], the “β2 Int Act” value falls from 0.85 to 0.84.

Compared with `O=C(CCNC[C@@H](O)c1ccccc1)N(CCNCCc1ccc(O)c2[nH]c(=O)sc12)C1CCCCC1` [Example 74, N^1-Cyclohexyl-N^1-(2-{[2-(4-hydroxy-2-oxo-2,3-dihydro-1,3-benzothiazol-7-yl)ethyl]amino}ethyl)-N^3-[(2S)-2-hydroxy-2-phenylethyl]-β-alaninamide bis-trifluoroacetic acid salt], `O=C(CCNC[C@H](O)c1ccccc1)N(CCNCCc1ccc(O)c2[nH]c(=O)sc12)C1CCCCC1` [Example 75, N^1-Cyclohexyl-N^1-(2-{[2-(4-hydroxy-2-oxo-2,3-dihydro-1,3-benzothiazol-7-yl)ethyl]amino}ethyl)-N^3-[(2R)-2-hydroxy-2-phenylethyl]-β-alaninamide bis-trifluoroacetic acid salt] is higher in “β2 Int Act” value: 0.79 for the first, 0.91 for the second.

First: O=C(CCNCCc1ccc2c(c1)OCO2)N(CCNCCc1ccc(O)c2[nH]c(=O)sc12)C1CCCCC1 [Example 76, N^3-[2-(1,3-Benzodioxol-5-yl)ethyl]-N^1-cyclohexyl-N^1-(2-{[2-(4-hydroxy-2-oxo-2,3-dihydro-1,3-benzothiazol-7-yl)ethyl]amino}ethyl)-β-alaninamide bis-trifluoroacetic acid salt]
Second: O=C(CCNCCc1ccc2c(c1)OCCO2)N(CCNCCc1ccc(O)c2[nH]c(=O)sc12)C1CCCCCC1 [Example 88, N^1-Cycloheptyl-N^3-[2-(2,3-dihydro-1,4-benzodioxin-6-yl)ethyl]-N^1-(2-{[2-(4-hydroxy-2-oxo-2,3-dihydro-1,3-benzothiazol-7-yl)ethyl]amino}ethyl)-β-alaninamide bis-trifluoroacetic acid salt]
The “β2 Int Act” value of the first is higher: 0.68 for the first, 0.37 for the second.

Going from `O=C(CCNCCc1nc2ccccc2[nH]1)N(CCNCCc1ccc(O)c2[nH]c(=O)sc12)C1CCCCC1` [Example 77, N^3-[2-(1H-Benzimidazol-2-yl)ethyl]-N^1-cyclohexyl-N^1-(2-{[2-(4-hydroxy-2-oxo-2,3-dihydro-1,3-benzothiazol-7-yl)ethyl]amino}ethyl)-β-alaninamide tris-trifluoroacetic acid salt] to `O=C(CCNCCc1cccc(F)c1)N(CCNCCc1ccc(O)c2[nH]c(=O)sc12)C1CCCCC1` [Example 96, N-Cyclohexyl-N^3-[2-(3-fluorophenyl)ethyl]-N-(2-{[2-(4-hydroxy-2-oxo-2,3-dihydro-1,3-benzothiazol-7-yl)ethyl]amino}ethyl)-β-alaninamide dihydrobromide salt], the “β2 Int Act” value rises from 0.54 to 0.85.

Compared with `O=C(CCNCCc1cc(F)cc(F)c1)N(CCNCCc1ccc(O)c2[nH]c(=O)sc12)C1CCCCC1` [Example 78, N^1-Cyclohexyl-N^3-[2-(3,5-difluorophenyl)ethyl]-N^1-(2-{[2-(4-hydroxy-2-oxo-2,3-dihydro-1,3-benzothiazol-7-yl)ethyl]amino}ethyl)-β-alaninamide bis-trifluoroacetic acid salt], `O=C(CCNCCc1cc(F)ccc1F)N(CCNCCc1ccc(O)c2[nH]c(=O)sc12)C1CCCCCC1` [Example 83, N^1-Cycloheptyl-N^3-[2-(2,5-difluorophenyl)ethyl]-N^1-(2-{[2-(4-hydroxy-2-oxo-2,3-dihydro-1,3-benzothiazol-7-yl)ethyl]amino}ethyl)-β-alaninamide bis-trifluoroacetic acid salt] is lower in “β2 Int Act” value: 0.91 for the first, 0.71 for the second.

`O=C(CCNCCC(F)(F)F)N(CCNCCc1ccc(O)c2[nH]c(=O)sc12)C1CCCCC1` [Example 80, N^1-Cyclohexyl-N^1-(2-{[2-(4-hydroxy-2-oxo-2,3-dihydro-1,3-benzothiazol-7-yl)ethyl]amino}ethyl)-N^3-(3,3,3-trifluoropropyl)-β-alaninamide bis-trifluoroacetic acid salt] and `O=C(CCNCCc1cccc(C(F)(F)F)c1)N(CCNCCc1ccc(O)c2[nH]c(=O)sc12)C1CCCCCC1` [Example 82, N^1-Cycloheptyl-N^1-(2-{[2-(4-hydroxy-2-oxo-2,3-dihydro-1,3-benzothiazol-7-yl)ethyl]amino}ethyl)-N^3-{2-[3-(trifluoromethyl)phenyl]ethyl}-β-alaninamide bis-trifluoroacetic acid salt] are the same in “β2 Int Act” value: 0.86 for the first, 0.86 for the second.

`O=C(CCNCCc1cccc(F)c1F)N(CCNCCc1ccc(O)c2[nH]c(=O)sc12)C1CCCCC1` [Example 81, N^1-Cyclohexyl-N^3-[2-(2,3-difluorophenyl)ethyl]-N^1-(2-{[2-(4-hydroxy-2-oxo-2,3-dihydro-1,3-benzothiazol-7-yl)ethyl]amino}ethyl)-β-alaninamide bis-trifluoroacetic acid salt] and `O=C(CCNCCc1c(F)cccc1F)N(CCNCCc1ccc(O)c2[nH]c(=O)sc12)C1CCCCCC1` [Example 84, N^1-Cycloheptyl-N^3-[2-(2,6-difluorophenyl)ethyl]-N^1-(2-{[2-(4-hydroxy-2-oxo-2,3-dihydro-1,3-benzothiazol-7-yl)ethyl]amino}ethyl)-β-alaninamide bis-trifluoroacetic acid salt] are the same in “β2 Int Act” value: 0.89 for the first, 0.89 for the second.

Compared with `Cc1cccc(CCNCCC(=O)N(CCNCCc2ccc(O)c3[nH]c(=O)sc23)C2CCCCCC2)c1` [Example 85, N^1-Cycloheptyl-N^1-(2-{[2-(4-hydroxy-2-oxo-2,3-dihydro-1,3-benzothiazol-7-yl)ethyl]amino}ethyl)-N^3-[2-(3-methylphenyl)ethyl]-β-alaninamide bis-trifluoroacetic acid salt], `O=C(CCNCCc1cccc(O)c1)N(CCNCCc1ccc(O)c2[nH]c(=O)sc12)C1CCCCCCC1` [Example 90, N^1-Cyclooctyl-N^1-(2-{[2-(4-hydroxy-2-oxo-2,3-dihydro-1,3-benzothiazol-7-yl)ethyl]amino}ethyl)-N^3-[2-(3-hydroxyphenyl)ethyl]-β-alaninamide bis-trifluoroacetic acid salt] is higher in “β2 Int Act” value: 0.65 for the first, 0.71 for the second.

First: COc1ccc(CCNCCC(=O)N(CCNCCc2ccc(O)c3[nH]c(=O)sc23)C2CCCCCC2)cc1OC [Example 86, N^1-Cycloheptyl-N^3-[2-(3,4-dimethoxyphenyl)ethyl]-N^1-(2-{[2-(4-hydroxy-2-oxo-2,3-dihydro-1,3-benzothiazol-7-yl)ethyl]amino}ethyl)-β-alaninamide bis-trifluoroacetic acid salt]
Second: O=C(CCNCCc1ccc(O)c2[nH]c(=O)sc12)N(CCNCCc1ccc(O)c2[nH]c(=O)sc12)C1CCCCCC1 [Example 87, N^1-Cycloheptyl-N^3-[2-(4-hydroxy-2-oxo-2,3-dihydro-1,3-benzothiazol-7-yl)ethyl]-N^1-(2-{[2-(4-hydroxy-2-oxo-2,3-dihydro-1,3-benzothiazol-7-yl)ethyl]amino}ethyl)-β-alaninamide bis-trifluoroacetic acid salt]
The “β2 Int Act” value of the first is lower: 0.43 for the first, 0.72 for the second.

First: CC1(C)CCC(N(CCNCCc2ccc(O)c3[nH]c(=O)sc23)C(=O)CCNCCc2cccc(O)c2)CC1 [Example 91, N^1-(4,4-Dimethylcyclohexyl)-N^1-(2-{[2-(4-hydroxy-2-oxo-2,3-dihydro-1,3-benzothiazol-7-yl)ethyl]amino}ethyl)-N^3-[2-(3-hydroxyphenyl)ethyl]-β-alaninamide bis-trifluoroacetic acid salt]
Second: O=C(NCc1ccccc1)c1ccc(CCNCCC(=O)N(CCNCCc2ccc(O)c3[nH]c(=O)sc23)C2CCCCCC2)cc1 [Example 100, N-Benzyl-4-[2-({3-[cycloheptyl(2-{[2-(4-hydroxy-2-oxo-2,3-dihydro-1,3-benzothiazol-7-yl)ethyl]amino}ethyl)amino]-3-oxopropyl}amino)ethyl]benzamide bis-trifluoroacetic acid salt]
The “β2 Int Act” value of the first is lower: 0.75 for the first, 0.81 for the second.

same assay, conditions: Intrinsic Activity, fraction relative to the maximum activity determined for formoterol, dihydrobromide salt

`O=C(CCNCCc1ccccc1)N(CCNCCc1ccc(O)c2[nH]c(=O)sc12)C1CCCCCC1` [Example 98, N-Cycloheptyl-N-(2-{[2-(4-hydroxy-2-oxo-2,3-dihydro-1,3-benzothiazol-7-yl)ethyl]amino}ethyl)-N^3-(2-phenylethyl)-β-alaninamide dihydrobromide salt] was tested, and the “β2 Int Act” value was 0.8.
